Laboratory results reported in US7846473B2, “Irinotecan preparation” (Terumo Kabushiki Kaisha, priority 2004, dated 2010).

Experiments:
Type in all cases: in vivo
Retentivity in blood = conditions: female, plasma, iv; BALB/c mouse, 10 mg/kg i.v. tail, elapsed time 1 hr; read-out: Concentration in plasma of irinotecan hydrochloride
[1] = tested on: human prostatic cancer cells (PC-3); test: Antitumor effect, human prostatic cancer PC-3 implanted in mouse; conditions: PC-3 in BALB/c nude mouse; for Inhibition rate (%) / Tumor weight (g, mean ± S.D.): Day 22
Source text: (§1) 2.5×10^6 cells/mouse of human prostatic cancer cells (PC-3) were implanted subcutaneously in left inguinal region of the mouse (BALB/c nude, male, 6 weeks old, Charles River Japan, Inc.). After implanting tumors, a presumptive tumor volume calculated by ½·ab^2 (a represents a longitudinal diameter of a tumor and b represents a short axis diameter thereof). […] There were mice without injection of either agent as a control group.
A presumptive tumor volume and a body weight of a mouse were measured at Days 1, 5, 9, 12, 16, and 22.
After extracting tumors and measuring a weight thereof at Day 22, further, an inhibition rate of tumor growth I.R. (%) was calculated by the following formula. I.R. %=(1−average tumor weight in a treatment group/average tumor weight in a control group)×100

[2] = Pharmacokinetics in cynomolgus monkey
Protocol: Providing 50 μL of blood plasma with 550 μL of an internal standard solution B (a methanol solution of internal standard substances) and employing centrifugal force, the supernatant was diluted with methanol 100-fold as a sample for the total CPT-11 concentration measurement. Meanwhile, Providing 50 μL of each blood plasma with 200 μL of an internal standard solution A (0.147 mol/L H3PO4 solution of internal standard substances), 200 μL thereof was subjected to a centrifugal separation (100,000×g, for 30 min, 10° C.). 100 μL in upper layer were separated and were employed solid-phase extraction, to obtain the eluent as samples for free CPT-11 (i.e., CPT-11 released from liposome, hereinafter referred as “liposome-released CPT-11”) concentration measurement, SN-38 concentration measurement, and SN-38G (SN-38 10-O-gluclonide) concentration measurement. The samples obtained were measured each concentration thereof with LC/MS/MS. FIGS. 8 to 11 show the results.

[3] = tested on: neutrophils and lymphocytes; test: Hemotoxicity in rat; conditions: i.v. tail vein
Protocol: Collecting blood of 0.4 mL from a cervical vein of the rat before and after injection; and after 2, 4, 6, 13, 20, and 27 days (for 4 weeks); the number of neutrophils and lymphocytes was measured with automated hematology analyzer (Sysmex XT-2000i, Sysmex). FIGS. 12 and 13 show the results.

[4] = tested on: human colon cancer cells (HCT116); test: Antitumor effect, human colon cancer HCT116 implanted in mouse; conditions: HCT116 in BALB/c nude mouse; for Inhibition rate (%) / Tumor weight (g, mean ± S.D.): 21 days after injection
Protocol: as §1, with “2×10^6” for “2.5×10^6”, “colon” for “prostatic”, “(HCT116)” for “(PC-3)”, “♂,” for “male,”, “volume was” for “volume”, “thereof) achieved to about 90 mm^3 in a day (Day 0).” for “thereof).”
A presumptive tumor volume and a body weight of a mouse were measured after 5, 8, 12, 16, and 21 days from the injection. Extracting tumors 21 days after the injection and measuring a weight thereof, further, an inhibition rate of tumor growth I.R. (%) was calculated by the formula as shown in Test Example 6.

[5] = tested on: Human colon cancer cells (HT-29); test: Antitumor effect, human colon cancer HT-29 transplanted in mouse; conditions: HT-29 in BALB/c nude mouse; for Inhibition rate (%) / Tumor weight (g, mean ± S.D.): 21 days after injection
Protocol: Human colon cancer cells (HT-29) with 2 to 3 mm square were transplanted subcutaneously in an inguinal region of a mouse (BALB/c nude, male, 6 weeks old, CLEA Japan, Inc.) with a needle for transplantation. […] Mice without injection of either agent were employed as a control group.
The estimated volume of tumors and a body weight of the mouse were calculated at 4, 8, 12, 17, 21 days after a first injection. The tumors were also removed 21 days after the injection and the weight of the tumors were measured, to thereby calculate a tumor proliferation inhibition rate, I.R. (%) by the formula as shown in Test Example 6.

[6] = Pharmacokinetics due to single administration in Meth A tumor-bearing mouse (plasma and tumor); conditions: Meth A-bearing BALB/c mouse, 10 mg/kg i.v.
[7] = tested on: Mouse fibrosarcoma (Meth A); test: Antitumor effect due to administration of a drug three times, Meth A; conditions: Meth A in BALB/c mouse; for Inhibition rate (%) / Tumor weight (g, mean ± S.D.): 21 days from transplantation
Protocol: Mouse fibrosarcoma (Meth A), 2.5×10^5 cells/mouse were transplanted subcutaneously in an inguinal region of a mouse (BALB/c, female, 7 weeks old, CLEA Japan, Inc.). […] Mice without injection of either agent were employed as a control group.
The tumors were also removed after 21 days from the transplantation and weight of the tumors was measured, to thereby calculate each tumor proliferation inhibition rate, I.R. (%) by the formula as shown in Test Example 6.

[8] = tested on: Mouse fibrosarcoma (Meth A); test: Antitumor effect due to administration of a drug once or twice, Meth A; conditions: Meth A in BALB/c mouse; for Inhibition rate (%) / Tumor weight (g, mean ± S.D.): 21 days from transplantation
Protocol: Mouse fibrosarcoma (Meth A), 2.5×10^5 cells/mouse were transplanted subcutaneously in an inguinal region of a mouse (BALB/c, female, 7 weeks old, CLEA Japan, Inc.). […] Mice without injection of any agent were employed as a control group.
The tumors were also removed after 21 days from the transplantation and weight of the tumors was measured, to thereby calculate tumor proliferation inhibition rate, I.R. (%) by the formula as shown in Test Example 6.

[9] = tested on: Human lung cancer cells (QG56); test: Antitumor effect, human lung cancer QG56 transplanted in mouse; conditions: QG56 in BALB/c nude mouse; for Inhibition rate (%) / Tumor weight (g, mean ± S.D.): 21 days after first injection
Protocol: Human lung cancer cells (QG56) with 2 to 3 mm square were transplanted subcutaneously in an inguinal region of a mouse (BALB/c nude, male, 6 weeks old, CLEA Japan, Inc.) with a needle for transplantation. […] Mice without injection of either agent were employed as a control group.
The estimated volume of each tumor and a body weight of the mouse were calculated 4, 8, 12, 16, and 21 days after the first injection. The tumors were also removed 21 days after the first injection and a weight of the tumors was measured, to thereby calculate each tumor proliferation inhibition rate, I.R. (%) by the formula as shown in Test Example 6. The results are shown in Table 16, FIG. 28, and FIG. 29.

[10] = 50 mg/kg i.v., treatment on days 7, 9, 11
[11] = 50 mg/kg i.v., treatment on days 7, 11, 15
[12] = 100 mg/kg i.v., treatment on days 7, 9, 11
[13] = 100 mg/kg i.v., treatment on days 7, 11, 15
[14] = 12.5 mg/kg i.v., treatment on day 7
[15] = 12.5 mg/kg i.v., treatment on days 7, 11
[16] = 25 mg/kg i.v., treatment on day 7
[17] = 25 mg/kg i.v., treatment on day 11
[18] = 25 mg/kg i.v., treatment on days 7, 11
[19] = 50 mg/kg i.v., treatment on day 7
[20] = 50 mg/kg i.v., treatment on day 11
[21] = 50 mg/kg i.v., treatment on days 7, 11

CCc1c2c(nc3ccc(OC(=O)N4CCC(N5CCCCC5)CC4)cc13)-c1cc3c(c(=O)n1C2)COC(=O)[C@]3(O)CC [(+)-(4S)-4,11-diethyl-4-hydroxy-9-[(4-piperidino-piperidino)carbonyloxy]-1H-pyrano[3′,4′:6,7]indolizino[1,2-b]quinolin-3,14(4H,12H)-dione]
concentration at 1 h (Retentivity in blood): 390 ng/mL
tumor growth compared to the control group [1]: significant suppressive effect of tumor growth
Inhibition rate (%) ([1]; 25 mg/kg i.v. days 1, 5, 9): 49.0%
Tumor weight (g, mean ± S.D.) ([1]; 25 mg/kg i.v. days 1, 5, 9): 0.64 ± 0.25 g
Inhibition rate (%) ([1]; 50 mg/kg i.v. days 1, 5, 9): 48.0%
Tumor weight (g, mean ± S.D.) ([1]; 50 mg/kg i.v. days 1, 5, 9): 0.66 ± 0.13 g
Inhibition rate (%) ([1]; 100 mg/kg i.v. days 1, 5, 9): 62.3%
Tumor weight (g, mean ± S.D.) ([1]; 100 mg/kg i.v. days 1, 5, 9): 0.48 ± 0.20 g
influence on body weight of the mouse ([1]; 25-100 mg/kg i.v. days 1, 5, 9): did not influence the body weight of the mouse
time of highest SN-38 concentration in blood plasma ([2]; 10 mg/kg i.v.): immediately after injection
time of highest free (liposome-released) CPT-11 concentration in blood plasma ([2]; 10 mg/kg i.v.): immediately after injection
concentration at 1 h ([2]; male, plasma, iv, 10 mg/kg i.v. over 4 min, until 1 hour, lower limit of quantification, read-out: total CPT-11 concentration in blood plasma): < 1000 ng/mL
number of lymphocytes [3]: on a decline immediately after injection albeit only slightly
tumor growth compared to the control group [4]: significant suppressive effect of tumor growth
Inhibition rate (%) ([4]; 18.75 mg/kg i.v. Days 1, 5, 9): 39.0%
Tumor weight (g, mean ± S.D.) ([4]; 18.75 mg/kg i.v. Days 1, 5, 9): 0.76 ± 0.06 g
Inhibition rate (%) ([4]; 37.5 mg/kg i.v. Days 1, 5, 9): 43.4%
Tumor weight (g, mean ± S.D.) ([4]; 37.5 mg/kg i.v. Days 1, 5, 9): 0.71 ± 0.08 g
Inhibition rate (%) ([4]; 75 mg/kg i.v. Days 1, 5, 9): 57.4%
Tumor weight (g, mean ± S.D.) ([4]; 75 mg/kg i.v. Days 1, 5, 9): 0.53 ± 0.14 g
influence on body weight of the mouse ([4]; 18.75-75 mg/kg i.v. Days 1, 5, 9): did not influence the body weight of the mouse
tumor proliferation compared with the control group [5]: strong tumor proliferation inhibitory effect
Inhibition rate (%) ([5]; 25 mg/kg i.v. days 1, 5, 9): 38.2%
Tumor weight (g, mean ± S.D.) ([5]; 25 mg/kg i.v. days 1, 5, 9): 0.36 ± 0.41 g
Inhibition rate (%) ([5]; 50 mg/kg i.v. days 1, 5, 9): 24.9%
Tumor weight (g, mean ± S.D.) ([5]; 50 mg/kg i.v. days 1, 5, 9): 0.44 ± 0.36 g
Inhibition rate (%) ([5]; 100 mg/kg i.v. days 1, 5, 9): 44.0%
Tumor weight (g, mean ± S.D.) ([5]; 100 mg/kg i.v. days 1, 5, 9): 0.33 ± 0.32 g
effect on body weight of the mouse ([5]; 25-100 mg/kg i.v. days 1, 5, 9): didn't affect the body weight of the mouse
time of maximum concentration of irinotecan hydrochloride in the tumor tissue [6]: 0.5 h
Inhibition rate (%) [7, 10]: 26.9%
Tumor weight (g, mean ± S.D.) [7, 10]: 1.47 ± 0.18 g
Inhibition rate (%) [7, 11]: 1.0%
Tumor weight (g, mean ± S.D.) [7, 11]: 1.99 ± 0.47 g
Inhibition rate (%) [7, 12]: 86.0%
Tumor weight (g, mean ± S.D.) [7, 12]: 0.28 ± 0.42 g
Inhibition rate (%) [7, 13]: 37.4%
Tumor weight (g, mean ± S.D.) [7, 13]: 1.26 ± 0.49 g
effect on body weight of the mouse ([7]; 50-100 mg/kg i.v. three times): didn't affect the body weight of the mouse
tumor proliferation compared to the control group ([7]; three administrations): significant tumor proliferation inhibitory effect
Inhibition rate (%) [8, 14]: 20.2%
Tumor weight (g, mean ± S.D.) [8, 14]: 2.82 ± 0.51 g
Inhibition rate (%) [8, 15]: 29.4%
Tumor weight (g, mean ± S.D.) [8, 15]: 2.49 ± 0.29 g
Inhibition rate (%) [8, 16]: 26.0%
Tumor weight (g, mean ± S.D.) [8, 16]: 2.61 ± 0.40 g
Inhibition rate (%) [8, 17]: 32.1%
Tumor weight (g, mean ± S.D.) [8, 17]: 2.40 ± 0.74 g
Inhibition rate (%) [8, 18]: 34.1%
Tumor weight (g, mean ± S.D.) [8, 18]: 2.33 ± 0.62 g
Inhibition rate (%) [8, 19]: 33.7%
Tumor weight (g, mean ± S.D.) [8, 19]: 2.34 ± 0.17 g
Inhibition rate (%) [8, 20]: 44.0%
Tumor weight (g, mean ± S.D.) [8, 20]: 1.98 ± 0.45 g
Inhibition rate (%) [8, 21]: 41.2%
Tumor weight (g, mean ± S.D.) [8, 21]: 2.08 ± 0.43 g
effect on body weight of the mouse ([8]; 12.5-50 mg/kg i.v. once or twice): didn't affect the body weight of the mouse
tumor proliferation compared to the control group ([8]; one or two administrations): significant tumor proliferation inhibitory effect compared to the control group unless a part of the physiological saline solutions of irinotecan hydrochloride
tumor proliferation compared to the control group [9]: significant tumor proliferation inhibitory effect
Inhibition rate (%) ([9]; 25 mg/kg i.v. days 1, 5, 9): 35.5%
Tumor weight (g, mean ± S.D.) ([9]; 25 mg/kg i.v. days 1, 5, 9): 1.88 ± 0.43 g
Inhibition rate (%) ([9]; 50 mg/kg i.v. days 1, 5, 9): 48.7%
Tumor weight (g, mean ± S.D.) ([9]; 50 mg/kg i.v. days 1, 5, 9): 1.49 ± 0.51 g
Inhibition rate (%) ([9]; 100 mg/kg i.v. days 1, 5, 9): 67.2%
Tumor weight (g, mean ± S.D.) ([9]; 100 mg/kg i.v. days 1, 5, 9): 0.95 ± 0.18 g
effect on body weight of the mouse ([9]; 25-100 mg/kg i.v. days 1, 5, 9): didn't affect the body weight of the mouse
